Key:
[1] = system: E. coli SC 18-12; experiment: Functionality check of pZHTkβ: survival of E. coli SC 18-12; format: cell-based; settings: Zeocine 25 μg/ml
Description: The functionality of the construct was checked using E. coli bacterial strains,
1—either by transforming the strain SC 18-12 for the expression of pol β,

[2] = target: DNA polymerase β (Homo sapiens, UniProt P06746); settings: in vitro, compared with dCMP (Copeland et al., 1992); cited from earlier work
[3] = target: T1, pol β (Rattus norvegicus, UniProt P06766); experiment: DNA replication test with extracts of pol β-transfected B16 cells; format: biochemical; settings: extracts of B16 cells transfected with pUT-pol β
T1 construct: expressed in transfected cells; host or cells: B16 mouse melanoma cells transfected with pUT-pol β; cell extracts

Cc1c(N)nc([C@H](CC(N)=O)NC[C@H](N)C(N)=O)nc1C(=O)N[C@H](C(=O)N[C@H](C)[C@@H](O)[C@H](C)C(=O)N[C@H](C(=O)NCCC1=N[C@@H](c2nc(C(=O)NCCCCN=C(N)N)cs2)CS1)[C@@H](C)O)[C@@H](O[C@@H]1O[C@@H](CO)[C@@H](O)[C@H](O)[C@@H]1O[C@H]1O[C@H](CO)[C@@H](O)[C@H](OC(N)=O)[C@@H]1O)c1cnc[nH]1 [Zeocine]
Survival (%) ([1]; SC 18-12/pZHTkβ): 97%
Survival (%) ([1]; SC 18-12 non-transformed): 5%

Nc1ccn([C@H]2CC[C@@H](COP(=O)(O)O)O2)c(=O)n1 [ddCMP]
Efficacy of incorporation by DNA polymerase β [2]: comparable to that observed for the incorporation of the natural antagonist dCMP

Nc1ccn([C@H]2CC[C@@H](COP(=O)(O)OP(=O)(O)OP(=O)(O)O)O2)c(=O)n1 [triphosphorylated ddC]
In vitro incorporation into the G-rich nucleotide substrate [3]: allowed an in vitro incorporation
